Experimental data published in patent US12303473B1 (priority 2023, dated 2025).
Where two headings read alike, the source gives them in different places.

Tests used:
[1] = system: patients having Major Depressive Disorder who also suffer from Treatment Resistant Depression; assay: Example 3: study similar to Example 2 with two arms of 25 patients; format: in vivo, human; details: 25 patients per arm
Experimental: A similar study to that of Example 2 is also conducted, except that the 50 patients are broken into two arms—one arm of 25 patients taking bupropion HCl XL and the other arm of 25 patients taking bupropion HBr XL.

[2] = system: patients having Major Depressive Disorder who also suffer from Treatment Resistant Depression; assay: Example 2: phase III double-blind active control Treatment Resistant Major Depressive Disorder study (MADRS), sequential HCl then HBr; format: in vivo, human; details: N=50
Experimental: A phase III double-blind study is conducted on a subset of patients having Major Depressive Disorder who also suffer from Treatment Resistant Depression. Exclusion criteria for this study are any patients suffering from seizures, known hypersensitivity to bupropion, eating disorders, schizophrenia or bipolar disorder. Inclusion criteria for this study are adult patients ages 18 through 64 who have taken two oral antidepressants of adequate dose and duration in the current episode of Major Depressive Disorder. The study includes a total of fifty patients (N=50). Initially, all patients are given a two-week washout from a previous oral antidepressant or are not currently taking an oral antidepressant. The patients are administered once daily bupropion HCl XL 150 mg, which is flexibly dosed to 300 mg by day 4 and 450 mg by day 11, to the extent required for treatment response and/or as tolerated. The treatment is continued for a total of six weeks. After six weeks, there is a five-day bupropion HCl XL washout. Next, the patients are administered once daily bupropion HBr XL 174 mg, which is flexibly dosed to 348 mg by day 4 and 522 mg by day 11, to the extent required for treatment response and/or as tolerated. This part of the study is continued for a total of six weeks. Measures are assessed based on weekly changes on the Montgomery Asberg Depression Rating Scale (MADRS) from baseline on bupropion HCl compared to bupropion HBr. Also, side effects leading to discontinuation on bupropion HCl compared to bupropion HBr are considered. The primary endpoint of the study is significant change in MADRS by week 6 on bupropion HBr compared to bupropion HCl. A secondary endpoint is statistically significant change in MADRS by week 2 on bupropion HBr compared to bupropion HCl.

[3] = system: adult patients with TRD; details: for depression rating based on mean PHQ-9 depression scores: "severe" at baseline, HBr after 2 weeks; for side effect: insomnia / side effect: anxiety / side effect: gastrointestinal upset: in vivo
Text: In the regular course of Applicants' general outpatient psychiatry practice, Applicants see many patients who suffer from Major Depressive Disorder (MDD) and may not have responded to two or more oral antidepressant medications. Applicants routinely administer the brief and commonly used Patient Health Questionnaire-9 (PHQ-9) scale before starting a new treatment, two weeks after starting treatment to measure initial response, and periodically thereafter.
Once-daily, XL bupropion HCl received FDA approval for the treatment of MDD in 2003 and for Seasonal Affective Disorder (SAD) in 2006.
The following study protocol was approved by the WCG-IRB institutional ethics committee and conducted in accordance with principles set forth in the Helsinki Declaration. […] The PHQ-9 is a reliable and valid clinical and research tool that measures functionality and depression severity, whereby scores of 5, 10, 15, and 20 correspond to mild, moderate, moderately severe, and severe depression and a 5-point change is considered clinically meaningful. Statistical analysis was performed using a within-subject, 2-tailed t-test with a significance level of p<0.05.

[4] = APLENZIN 348 mg once-daily, 10-day dosing; cited from earlier work

SMILES	results of two-arm study compared to bupropion HCl XL [1]	side effects leading to discontinuation compared to bupropion HCl [2]	efficacy in TRD (MADRS change) compared to bupropion HCl ([2]; 174-522 mg once daily, six weeks)	speed of effect compared to bupropion HCl ([2]; MADRS by week 2)	depression rating based on mean PHQ-9 depression scores ([3]; 30 adult TRD patients)	mean PHQ-9 score on XL bupropion HBr ([3]; 30 adult TRD patients, after 2 weeks on mean dose 348 mg/day (range 174-522 mg/day) after direct switch from XL bupropion HCl, t=-8.63, p<0.00001 vs HCl)	change in PHQ-9 questions (1), (3), (4), (5) and (7) on XL bupropion HBr compared to XL bupropion HCl ([3]; all patients in the study of Example 1, each question rated 0 to 3)	side effect: insomnia ([3]; both, human) [patients]	side effect: anxiety [3]	side effect: gastrointestinal upset [3]	patient preference over the combination of bupropion HCl plus dextromethorphan ([3]; subgroup of five patients who had previously failed the combination, due to improved antidepressant efficacy)	peak plasma concentration and area under the curve vs bupropion HCl extended-release 300 mg (bioequivalence) [4]	mean PHQ-9 score on XL bupropion HCl ([3]; 30 adult TRD patients, mean dose 300 mg/day (range 150-450 mg/day), mean duration 88.8 weeks, PHQ-9 range 0-27, baseline 20.9±4.3)	side effect: anxiety ([3]; both, human) [patients]	side effect: gastrointestinal upset ([3]; both, human) [patients]
Br.CC(NC(C)(C)C)C(=O)c1cccc(Cl)c1 (centres unmarked) [XL bupropion HBr, bupropion hydrobromide]	same as in Example 2	fewer side effects leading to discontinuation	more effective	works faster	mild (Scores of 5-9 indicate mild depression)	6.4±5.0	improving by at least one point	3	resolved	resolved	All five patients in this subgroup preferred once-daily XL bupropion HBr	equivalent	–	–	–
CC(NC(C)(C)C)C(=O)c1cccc(Cl)c1.Cl (racemic) [XL bupropion HCl, (±)-1-(3-chlorophenyl)-2-[(1,1-dimethylethyl)amino]-1-propanone hydrochloride]	–	–	–	–	moderately severe (Scores of 15-19 indicate moderately severe depression)	–	–	21	–	–	–	–	15.3±5.3	19	2
